Results taken from patent US10759831B2, “Peptide compound, production method therefor, and use thereof” (iNtRON Biotechnology, Inc., priority 2014, dated 2020).

Assays:
[1] = system: cell cycle-related proteins in RKO cells; assay: Immunoblotting of cell cycle-related proteins; format: cell-based, human
Description: As described in Example 2-3, cells were obtained in a way that Asperphenin B at the concentration of 0.625 μM, 1.25 μM, 2.5 μM, 5 μM, or 10 μM was added to the RKO cells, and then, cultured for 48 hours. However, cells were obtained in a way that Asperphenin B at the concentration of 5 μM was added to the RKO cells, and then, cultured for 0 to 48 hours. Then, proteins were obtained from the obtained cells.
Regarding the expression of the cell cycle-related proteins, anti-p-cyclin B1(Ser147) antibody (Cell Signaling Technology), anti-cyclin B1 antibody (Santa Cruz), anti-p-cdc2(Tyr15) antibody (Cell Signaling Technology), anti-cdc2 antibody (Santa Cruz), and anti-β-actin antibody (Santa Cruz) were used to perform immunoblotting thereon.

[2] = system: RKO cells; assay: Tumor xenograft mouse model, RKO human colon cancer cell line; format: in vivo; conditions: nude mouse; for Tumor growth inhibition ratio: 21 days
Description: The anticancer effect of […] was verified in a tumor xenograft mouse model to which human colon cancer cell line was transplanted. In detail, RKO cells were subcutaneously injected at a concentration of 3.5×10^6 cells/150 μl into the right side of a nude mouse (Central Lab. Aminol Inc., hairless and small mouse that was tymus free and had dried beard at birth). […] The tumor size was measured by using a digital caliper for 21 days at intervals of 3 to 4 days. Here, as a control, a nude mouse to which […] was not administered was used (n=5).

[3] = system: RKO cells; assay: ROS production, DCFH-DA flow cytometry; format: cell-based, human; conditions: 24 hours
Description: In detail, as described in Example 2-3, Asperphenin B at the concentration of 2.5 μM, 5 μM, or 10 μM wad added to the RKO cells. Cells were collected after the RKO cells were cultured for 24 hours. In addition, a cell group in which 5 mM of N-acetylcysteine (NAC) (Sigma Aldrich), which is an antioxidant, was added to 5 μM and […] of Asperphenin B was prepared as a comparative group, whereas a cell group in which none of Asperphenin B and NAC was contained as a control.
Afterwards, 2′,7′-dichlorofluorescin diacetate (DCFH-DA) (Sigma Aldrich) having a final concentration of 20 μM was added to the cell culture medium, and then, cultured at a temperature of 37° C. for 30 minutes under the condition of 5% CO2. Cells attached to the cell medium and cells not attached to the cell medium were all collected, washed with cold PBS twice, and then, suspended again in 1 ml of PBS to measure intensity of 2′,7′-dichlorofluorescin (DCF) by using a BD FACSCalibur flow cytrometer (manufactured by BD Biosciences).

[4] = system: RKO cells; assay: Annexin V-FITC/PI apoptosis measurement by flow cytometry; format: cell-based, human; conditions: 48 hours, 0.625-10 μM, FIG. 4
Description: The process of apoptosis in the cell line RKO by Asperphenin B was confirmed using a Annexin V-FITC apoptosis measuring kit (manufactured by D Pharmingen).
As described in Example 2-3, Asperphenin B at the concentration of 0.625 μM, 1.25 μM, 2.5 μM, 5 μM, or 10 μM was added to the RKO cells, cultured for 48 hours to obtain cells. 300 μl of 1× binding buffer was added to the obtained cells, and well mixed together. Then, 5 μl of Annexin V and 5 μl of PI were added to 100 μl of the cell mixture, and allowed to react at room temperature for 15 minutes in the shaded stated. 400 μl of 1× binding buffer was added to the reactants, a FACSCalibur flow cytometer (BD FACSCalibur, BD Biosciences) was used to analyze the cell apoptosis. Based on the flow cytometry results, ratios of cells that were not stained (i.e., living cells), cells stained with annexin V (i.e., cells apoptosized at the early state), cells stained with both PI and annexin V (i.e., cells apoptosized at the late state or cells necrotized), or cells stained with PI only (i.e., cells necrotized) were calculated. As a negative control, cells to which Asperphenin B was not added were used.

[5] = system: colon cancer cell line LS174T; assay: SRB cell viability assay, colon cancer cell line LS174T; format: cell-based; conditions: Homo sapiens, read-out: Growth inhibition value of cancer cell (IC50)
Description: (§1) In detail, 190 μl of a cell suspension at a concentration of 3.5×10^4 cells/ml was inoculated in each well of a 96-well microplate. 0.8 μM, 4 μM, 20 μM, or 100 μM of Asperphenin was added to the cell culture medium, and cultured at a temperature of 37° C. for 72 hours under the condition of 5% CO2. After incubation, 50 μl of 50% (v/v) trichloroacetic acid solution (Sigma Aldrich) was added to each well, and then, incubated at a temperature of 4° C. for 30 minutes, to thereby fix the cells thereto. The fixed cells were washed with water five times, and then, dried in the air.
Next, 80 μl of a 0.4% (w/v) SRB aqueous solution (Sigma Aldrich) containing 1% (v/v) acetic acid (DUKSAN) was added to each well, incubated at room temperature for 1 hour to stain cells therein, and the stained cells washed with water and dried. The cells were dissolved by adding 200 μl of 10 mM Tris (pH 10.0) (Sigma Aldrich) to each well, and then, the number of living cells was calculated by measuring the absorbance thereof at 515 nm. […]
From the colon cancer cell lines HCT116 (ATCC), HCT15 (Korean Cell Line Bank), LS174T (Korean Cell Line Bank), RKO(ATCC), and SW480(ATCC), cell growth inhibition concentrations (IC50, μM) were calculated as described in Example 2-1, and the results are shown in Table 4. […]

[6] = system: lung cancer cell line A549; assay: SRB cell viability assay, lung cancer cell line A549; format: cell-based; conditions: Homo sapiens; A549, 72 hours; read-out: Cell growth inhibition concentration (IC50)
Description: Regarding a lung cancer cell line A549 (Korean Cell line Bank), a colon cancer cell line HCT116 (ATCC), a stomach cancer cell line SNU638 (Korean Cell Line Bank), a liver cancer cell line SK-HEP-1 (Korean Cell line Bank), and a breast cancer cell line MDA-MB-231 (Korean Cell line Bank), a sulforhodamine B (SRB) assay which is a method of measuring cell viability was used for measuring apoptosis effects of Asperphenin.
as §1
Next, 80 μl of a 0.4% (w/v) SRB aqueous solution (Sigma Aldrich) containing 1% (v/v) acetic acid (DUKSAN) was added to each well, incubated at room temperature for 1 hour to stain cells therein, and the stained cells washed with water and dried. The cells were dissolved by adding 200 μl of 10 mM Tris (pH 10.0) (Sigma Aldrich) to each well, and then, the number of living cells was calculated by measuring the absorbance thereof at 515 nm. The concentration of the compound inhibiting cell growth to 50% based on the number of the living cells, i.e., 50% inhibition concentration (IC50) was calculated, and the results are shown in Table 3. Here, as a positive control, etoposide (Sigma Aldrich) was used.

- IC50 [5]: 1.84 µM
- IC50 [6]: 41.8 µM
Compound: CCCCCCCCC[C@@H](O)CC(=O)N[C@@H](CC(N)=O)C(=O)N[C@@H](CCC(N)=O)C(=O)N[C@H](CC(=O)c1cc(C)cc(O)c1C(=O)c1c(O)cccc1O)CC(C)C [Asperphenin B]
- Expression of p-cdc2 (Tyr15) protein ([1]; 5 μM, 0 to 48 hours, FIG. 5B): increased in time-dependent manner
- Expression of p-cyclin B1 (Ser147) ([1]; 5 μM, 0 to 48 hours, FIG. 5B): highest at about 24 hours
- Expression of non-active p-cyclin B1 (Ser147) protein ([1]; 48 hours, 2.5 μM, FIG. 5A): increased
- Expression of p-cyclin B1 (Ser147) protein and cyclin B1 protein ([1]; 48 hours, 5 μM and 10 μM, FIG. 5A): decreased
- Expression of non-active p-cdc2 (Tyr15) protein ([1]; 48 hours, 0.625-10 μM, FIG. 5A): increased in a concentration-dependent manner
- Tumor growth inhibition ratio ([2]; 4 mg/kg intraperitoneally 3 times a week): 38.9%
- Inhibition of tumor growth ([2]; 4 mg/kg or 8 mg/kg): observed in a compound concentration-dependent manner
- Tumor growth inhibition ratio ([2]; 8 mg/kg intraperitoneally 3 times a week): 68.7%
- Production of ROS relative to the control [3]: about 2.4 times
- Ratio of cells producing ROS ([3]; 2.5 μM): 8.14%
- Ratio of cells producing ROS ([3]; 5 μM): 13.86%
- Ratio of cells producing ROS ([3]; 5 μM Asperphenin B + 5 mM NAC): 1.41%
- Ratio of cells producing ROS ([3]; 10 μM): 14.26%
- Ratio of cells producing ROS ([3]; 10 μM Asperphenin B + 5 mM NAC): 2.55%
- Ratio of necrotic cells compared to control [4]: increased
- Ratios of cells of early apoptosis and cells of late apoptosis or necrosis compared to control [4]: increased
